Laboratory results: patent US20250059213A1, “LONP1 INHIBITORS, USES AND METHODS” (Pretzel Therapeutics, Inc., priority 2021, published 2025)

Molecular target: LONP1 (NM_004793.4) (Homo sapiens (Human), UniProt P36776)
Test: LONP1 FRET-based protease activity assay (fluorogenic peptide substrate)
Assay type: biochemical
Conditions: LONP1 15 nM, substrate 3 μM, 15 min preincubation, 1 hour at 37° C.; average of a minimum of two repeats
Procedure: Inhibition of LONP1 protease activity by an inhibitor compound of the disclosure elicits a decrease in the fluorescent signal.
The LONP1-containing mix (10 μL) was incubated with the test compound for 15 min at 37° C. before adding the peptide-containing mix (5 μL). Solutions were dispensed using a small cassette-Multidrop Combi (Thermo Scientific).
Each value is based on an average of a minimum of two repeats.

Sequence of LONP1 (NM_004793.4) (P36776 68-959): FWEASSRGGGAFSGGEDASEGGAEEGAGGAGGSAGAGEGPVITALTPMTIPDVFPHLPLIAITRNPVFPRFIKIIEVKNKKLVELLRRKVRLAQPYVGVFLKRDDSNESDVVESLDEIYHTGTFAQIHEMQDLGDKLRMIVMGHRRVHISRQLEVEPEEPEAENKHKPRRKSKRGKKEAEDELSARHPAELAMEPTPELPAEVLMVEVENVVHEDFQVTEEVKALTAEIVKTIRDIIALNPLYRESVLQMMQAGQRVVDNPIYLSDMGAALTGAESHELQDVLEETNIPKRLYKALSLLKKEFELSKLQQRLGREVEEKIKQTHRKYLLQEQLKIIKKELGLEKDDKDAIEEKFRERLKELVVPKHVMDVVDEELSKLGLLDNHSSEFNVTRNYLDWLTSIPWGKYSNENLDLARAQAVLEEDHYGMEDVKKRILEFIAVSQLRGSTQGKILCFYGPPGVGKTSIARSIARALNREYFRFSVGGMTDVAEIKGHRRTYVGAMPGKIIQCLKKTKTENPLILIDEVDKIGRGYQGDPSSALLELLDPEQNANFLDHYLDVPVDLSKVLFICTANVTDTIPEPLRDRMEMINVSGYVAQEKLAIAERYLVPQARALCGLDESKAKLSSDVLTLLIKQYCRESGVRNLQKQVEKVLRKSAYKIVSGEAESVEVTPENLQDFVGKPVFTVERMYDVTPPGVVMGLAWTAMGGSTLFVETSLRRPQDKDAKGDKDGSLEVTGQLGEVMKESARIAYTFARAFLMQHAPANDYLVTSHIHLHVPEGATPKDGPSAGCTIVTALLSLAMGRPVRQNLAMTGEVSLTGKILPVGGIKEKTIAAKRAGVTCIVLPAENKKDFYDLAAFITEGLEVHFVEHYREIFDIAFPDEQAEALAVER

SMILES | IC50 [nM]
O=C(N[C@H](CC(=O)N1CCOCC1)C(=O)NC(CCCc1ccccc1)B(O)O)C1CCCCC1 (stereo in doubt) [Compound 41, ((R)-1-((R)-2-(cyclohexanecarboxamido)-4-morpholino-4-oxobutanamido)-4-phenylbutyl)boronic acid] | < 50
O=C(N[C@H](CC(=O)N1CCOCC1)C(=O)NC(CCCc1ccccc1)B(O)O)C1CCOCC1 (stereo in doubt) [Compound 42, ((R)-1-((R)-4-morpholino-4-oxo-2-(tetrahydro-2H-pyran-4-carboxamido)butanamido)-4-phenylbutyl)boronic acid] | < 50
O=C(NC(CC(=O)N1CCOCC1)C(=O)N[C@@H](Cc1ccccc1)B(O)O)c1cnccn1 (stereo in doubt) [Compound 47, ((R)-1-((R)-4-morpholino-4-oxo-2-(pyrazine-2-carboxamido)butanamido)-2-phenylethyl)boronic acid] | > 5000
O=C(C[C@@H](NC(=O)c1cnccn1)C(=O)N[C@@H](CCCc1ccccc1)B(O)O)c1ccccc1 [Compound 3, ((1R)-1-(4-oxo-4-phenyl-2-(pyrazine-2-carboxamido)butanamido)-4-phenylbutyl)boronic acid] | < 50
CC(C)C[C@H](NC(=O)[C@@H](CC(=O)N1CCOCC1)NC(=O)c1cnccn1)B(O)O [Compound 4, ((R)-3-methyl-1-((R)-4-morpholino-4-oxo-2-(pyrazine-2-carboxamido)butanamido)butyl)boronic acid] | < 50
O=C(N[C@H](CC(=O)N1CCOCC1)C(=O)N[C@@H](CCc1ccccc1)B(O)O)c1cnccn1 [Compound 5, ((R)-1-((R)-4-morpholino-4-oxo-2-(pyrazine-2-carboxamido)butanamido)-3-phenylpropyl)boronic acid] | < 50
CCCC[C@H](NC(=O)[C@@H](CC(=O)N1CCOCC1)NC(=O)c1cnccn1)B(O)O [Compound 6, ((R)-1-((R)-4-morpholino-4-oxo-2-(pyrazine-2-carboxamido)butanamido)pentyl)boronic acid] | < 50
Cc1nc(C)c(C(=O)N[C@H](CC(=O)N2CCOCC2)C(=O)N[C@@H](CC(C)C)B(O)O)o1 [Compound 7, ((R)-1-((R)-2-(2,4-dimethyloxazole-5-carboxamido)-4-morpholino-4-oxobutanamido)-3-methylbutyl)boronic acid] | < 50
CN(C)C(=O)C[C@@H](NC(=O)c1cnccn1)C(=O)N[C@@H](CCCc1ccccc1)B(O)O [Compound 8, ((R)-1-((R)-4-(dimethylamino)-4-oxo-2-(pyrazine-2-carboxamido)butanamido)-4-phenylbutyl)boronic acid] | < 50
CCNC(=O)C[C@@H](NC(=O)c1cnccn1)C(=O)N[C@@H](CCCc1ccccc1)B(O)O [Compound 9, ((R)-1-((R)-4-(ethylamino)-4-oxo-2-(pyrazine-2-carboxamido)butanamido)-4-phenylbutyl)boronic acid] | < 50
NC(=O)C[C@@H](NC(=O)c1cnccn1)C(=O)N[C@@H](CCCc1ccccc1)B(O)O [Compound 10, ((R)-1-((R)-4-amino-4-oxo-2-(pyrazine-2-carboxamido)butanamido)-4-phenylbutyl)boronic acid] | < 50
O=C(N[C@H](CC(=O)N1CCCCC1)C(=O)N[C@@H](CCCc1ccccc1)B(O)O)c1cnccn1 [Compound 11, ((R)-1-((R)-4-oxo-4-(piperidin-1-yl)-2-(pyrazine-2-carboxamido)butanamido)-4-phenylbutyl)boronic acid] | < 50
CC(=O)N[C@H](CC(=O)N1CCOCC1)C(=O)N[C@@H](CCCc1ccccc1)B(O)O [Compound 19, ((R)-1-((R)-2-acetamido-4-morpholino-4-oxobutanamido)-4-phenylbutyl)boronic acid] | < 50
O=C(N[C@@H](CCCc1ccccc1)B(O)O)[C@@H](CC(=O)N1CCOCC1)NC(=O)N1CCOCC1 [Compound 20, ((R)-1-((R)-2-(morpholine-4-carboxamido)-4-morpholino-4-oxobutanamido)-4-phenylbutyl)boronic acid] | < 50
CC(C)(C)OC(=O)N[C@H](CC(=O)N1CCOCC1)C(=O)N[C@@H](CCCc1ccccc1)B(O)O [Compound 21, ((R)-1-((R)-2-((tert-butoxycarbonyl)amino)-4-morpholino-4-oxobutanamido)-4-phenylbutyl)boronic acid] | < 50
CC(C)(C)NC(=O)N[C@H](CC(=O)N1CCOCC1)C(=O)N[C@@H](CCCc1ccccc1)B(O)O [Compound 22, ((R)-1-((R)-2-(3-(tert-butyl)ureido)-4-morpholino-4-oxobutanamido)-4-phenylbutyl)boronic acid] | 50 to 500

SMILES | IC50 [nM]
O=C(N[C@H](CCC(=O)N1CCOCC1)C(=O)N[C@@H](CCCc1ccccc1)B(O)O)c1cnccn1 [Compound 23, ((R)-1-((R)-5-morpholino-5-oxo-2-(pyrazine-2-carboxamido)pentanamido)-4-phenylbutyl)boronic acid] | < 50
CN(C)S(=O)(=O)C[C@@H](NC(=O)c1cnccn1)C(=O)N[C@@H](CCCc1ccccc1)B(O)O [Compound 27, ((R)-1-((S)-3-(N,N-dimethylsulfamoyl)-2-(pyrazine-2-carboxamido)propanamido)-4-phenylbutyl)boronic acid] | < 50
O=C(N[C@H](COc1ccccn1)C(=O)N[C@@H](CCCc1ccccc1)B(O)O)c1cnccn1 [Compound 29, ((R)-4-phenyl-1-((R)-2-(pyrazine-2-carboxamido)-3-(pyridin-2-yloxy)propanamido)butyl)boronic acid] | < 50
CCC[C@H](NC(=O)[C@@H](CC(=O)N1CCOCC1)NC(=O)c1cnccn1)B(O)O [Compound 31, ((R)-1-((R)-4-morpholino-4-oxo-2-(pyrazine-2-carboxamido)butanamido)butyl)boronic acid] | < 50
CC[C@H](NC(=O)[C@@H](CC(=O)N1CCOCC1)NC(=O)c1cnccn1)B(O)O [Compound 32, ((R)-1-((R)-4-morpholino-4-oxo-2-(pyrazine-2-carboxamido)butanamido)propyl)boronic acid] | < 50
CN(C)C(=O)N[C@H](CC(=O)N1CCOCC1)C(=O)N[C@@H](CCCc1ccccc1)B(O)O [Compound 33, ((R)-1-((R)-2-(3,3-dimethylureido)-4-morpholino-4-oxobutanamido)-4-phenylbutyl)boronic acid] | < 50
CS(=O)(=O)CC[C@@H](NC(=O)c1cnccn1)C(=O)N[C@@H](CCCc1ccccc1)B(O)O [Compound 35, ((R)-1-((R)-4-(methylsulfonyl)-2-(pyrazine-2-carboxamido)butanamido)-4-phenylbutyl)boronic acid] | < 50
COC[C@@H](NC(=O)c1cnccn1)C(=O)N[C@@H](CCCc1ccccc1)B(O)O [Compound 37, ((R)-1-((R)-3-methoxy-2-(pyrazine-2-carboxamido)propanamido)-4-phenylbutyl)boronic acid] | < 50
COC[C@@H](NC(=O)c1cnccn1)C(=O)N[C@@H](COCc1ccccc1)B(O)O [Compound 38, ((R)-2-(benzyloxy)-1-((R)-3-methoxy-2-(pyrazine-2-carboxamido)propanamido)ethyl)boronic acid] | < 50
CCC[C@@H](NC(=O)c1cnccn1)C(=O)N[C@@H](COCc1ccccc1)B(O)O [Compound 39, ((R)-2-(benzyloxy)-1-((R)-2-(pyrazine-2-carboxamido)pentanamido)ethyl)boronic acid] | < 50
O=C(N[C@@H](CCCc1ccccc1)B(O)O)[C@@H](CC(=O)N1CCOCC1)NS(=O)(=O)c1ccccc1 [Compound 43, ((R)-1-((R)-4-morpholino-4-oxo-2-(phenylsulfonamido)butanamido)-4-phenylbutyl)boronic acid] | < 50
O=C(N[C@H](CC(=O)N1CCOCC1)C(=O)N[C@@H](CCCc1ccccc1)B(O)O)C1CCCCO1 (stereo partly drawn) [Compound 44, ((1R)-1-((2R)-4-morpholino-4-oxo-2-(tetrahydro-2H-pyran-2-carboxamido)butanamido)-4-phenylbutyl)boronic acid] | < 50
COC[C@@H](NC(=O)c1ccccc1)C(=O)N[C@@H](CCCc1ccccc1)B(O)O [Compound 48, ((R)-1-((R)-2-benzamido-3-methoxypropanamido)-4-phenylbutyl)boronic acid] | < 50
COC[C@@H](NC(=O)c1cccc(OC)n1)C(=O)N[C@@H](CCCc1ccccc1)B(O)O [Compound 50, ((R)-1-((R)-3-methoxy-2-(6-methoxypicolinamido)propanamido)-4-phenylbutyl)boronic acid] | < 50
CCC[C@H](C(=O)N[C@@H](CCCc1ccccc1)B(O)O)N(C)C(=O)c1cnccn1 [Compound 51, ((R)-1-((R)-2-(N-methylpyrazine-2-carboxamido)pentanamido)-4-phenylbutyl)boronic acid] | 50 to 500
CCC[C@H](C(=O)N(C)[C@@H](CCCc1ccccc1)B(O)O)N(C)C(=O)c1cnccn1 [Compound 52, ((R)-1-((R)—N-methyl-2-(N-methylpyrazine-2-carboxamido)pentanamido)-4-phenylbutyl)boronic acid] | 50 to 500
